From article PMC9181982, “Biphenyl Ether Analogs Containing Pomalidomide as Small-Molecule Inhibitors of the Programmed Cell Death-1/Programmed Cell Death-Ligand 1 Interaction” (Molecules, 2022)
“Also recorded” adds a separate entry of the source.

Experiments:
[1] = molecular target: T1, PD-L1 in MDA-MB-231 cells (Homo sapiens, UniProt Q9NZQ7); assay: Western blot of PD-L1 expression in MDA-MB-231 cells; format: cell-based; settings: MDA-MB-231 cells treated for 6 or 24 h
T1 construct: host or cells: MDA-MB-231
Experimental: The cell lysates were prepared with a RIPA buffer (Sigma-Aldrich) containing Protease Inhibitor Cocktail (Sigma-Aldrich, St. Louis, MO, USA) and separated by 12% SDS-PAGE (TGX™ FastCast™ Acrylamide Kit, Bio-Rad, Hercules, CA, USA). The proteins were transferred to a PVDF membrane (Merck Millipore, Burlington, MA, USA) using a Mini Trans-Blot® Cell system (Bio-Rad, Hercules, CA, USA). The membranes were incubated with 4% (m/v) bovine serum albumin (BioShop, Burlington, Ontario, Canada) in a TBS buffer containing 0.1% (v/v) Nonidet P-40 (BioShop, Burlington, Ontario, Canada) at RT for 1 h. Then, the membranes were incubated with a specific primary antibody at 4 °C overnight. Following three washes in TBS-N, a secondary horseradish peroxidase (HRP)-conjugated antibody was applied for 1 h at RT. […]
Figure 2 Bioactivity of the indicated compounds. (A,B) The activity was monitored with a cell-based immune checkpoint blockade (ICB) assay. […] The cells were co-cultured for 6 h and the luminescence signal was measured following the addition of the Bio-Glo substrate. The graphs show fold induction calculated versus either DMSO-treated (for small molecules) or untreated (for durvalumab) control (ctrl) cells. […]

PD-1/PD-L1 complex = molecular target: T2, PD-1/PD-L1 complex (Homo sapiens, UniProt Q9NZQ7); assay: HTRF (homogeneous time-resolved fluorescence) PD-1/PD-L1 binding assay (Cis-Bio); settings: for inhibition at 0.5 µM: 0.5 µM ligand, read-out: HTRF: Percentage of the Dissociated PD-1/PD-L1 Complex, 0.5 µM Ligand Conc.; for inhibition at 0.5 µM / inhibition at 5 µM: 5 nM hPD-L1, 50 nM hPD-1; for inhibition at 5 µM: 5 µM ligand, read-out: HTRF: Percentage of the Dissociated PD-1/PD-L1 Complex, 5 µM Ligand Conc.; for IC50: six ligand concentrations, two dilution series
T2 construct: purchased Cis-Bio
Experimental: To validate the activity toward PD-L1 of our compounds, we carried out an HTRF (homogeneous time-resolved fluorescence) experiment at two concentrations of the ligand (5 µM and 0.5 µM) (Table 1).
HTRF was carried out using a certified Cis-Bio assay according to the manufacturer’s guidelines. The experiments were carried out at 5 nM of h-L1 and 50 nM of hPD-1 in the final formulation at the 20 µL final volume in the well. To determine the half maximal inhibitory concentrations (IC50) of the tested compounds, the measurements were carried out on two individual dilution series unless stated otherwise. After mixing all the components according to the Cis-Bio protocol, the plate was left for 2 h incubation at room temperature followed by the TR-FRET measurement on a Tecan Spark 20M. […] The collected data was background-subtracted from the negative control, normalized on the positive control, averaged, and fitted with the normalized Hill’s equation to determine the IC50 value using Mathematica 12 (Princeton, NJ, USA).

PD-L1 protein = molecular target: T3, PD-L1 protein (Homo sapiens, UniProt Q9NZQ7); assay: 1H NMR binding analysis, PD-L1 protein titrated with ligand; settings: for Protein precipitation during NMR titration: 1H NMR titration, compound 6 at protein–ligand ratio 1:10; for Binding to PD-L1 by 1H NMR titration: PBS pH 7.4, 300 K, protein–ligand ratios up to 1:10
T3 construct: PD-L1 gene (amino acids 18–239); made in house; host or cells: E. coli BL21
Experimental: Apart from the HTRF assay, we performed the NMR [33, 34] binding analysis by recording the ^1H spectrum of the PD-L1 protein titrated with compound 4 (Figure 1).
The E. coli strain BL21 was transformed with a pET-21b plasmid carrying the PD-L1 gene (amino acids 18–239). The bacteria were cultured in LB at 37 °C until OD600nm of 0, 6 when the recombinant protein production was induced with 1 mM IPTG. The protein production continued overnight. The inclusion bodies were collected by centrifugation, washed twice with 50 mM Tris HCl, pH 8.0, containing 200 mM NaCl, 10 mM EDTA, 10 mM 2-mercaptoethanol, and 0.5% Triton X-100, followed by a single wash with the same buffer but with no Triton X-100. The washed inclusion bodies were resuspended overnight in 50 mM Tris HCl, pH 8.0, 6 M GuHCl, 200 mM NaCl, and 10 mM 2-mercaptoethanol and clarified with centrifugation. Refolding of PD-L1 was performed by dropwise dilution into 0.1 M Tris HCl, pH 8.0, containing 1 M L-arginine hydrochloride, 0.25 mM oxidized glutathione, and 0.25 mM reduced glutathione. The refolded protein was dialyzed three times against 10 mM Tris HCl, pH 8.0, containing 20 mM NaCl and purified by size exclusion chromatography using Superdex 75 and a dialysis buffer. The quality of the refolded protein was evaluated by SDS-PAGE and NMR.
NMR spectra were recorded in PBS, pH 7.4, containing 10% (v/v) of D2O added to the samples to provide the lock signal. Water suppression was carried out using the WATERGATE sequence. All the spectra were recorded at 300 K using a Bruker Avance 600 MHz spectrometer with the Cryo-Platform. The NMR spectrum was recorded at three different ligand/protein ratios from 0 to 10. The samples were prepared by adding small amounts of a 50 mM ligand stock solution in DMSO to the protein solution (0.20 mL) of the PD-L1 fragment at a concentration of 0.14 mM. The acquisition parameters for each spectrum were as follows: size of FID32768, number of scans: 32. The spectra were visualized using TopSpin 4.0.2. (Bruker, Billerica, MA, USA)

T2 sequence (Q9NZQ7 19-238 limits assumed, one chain of several): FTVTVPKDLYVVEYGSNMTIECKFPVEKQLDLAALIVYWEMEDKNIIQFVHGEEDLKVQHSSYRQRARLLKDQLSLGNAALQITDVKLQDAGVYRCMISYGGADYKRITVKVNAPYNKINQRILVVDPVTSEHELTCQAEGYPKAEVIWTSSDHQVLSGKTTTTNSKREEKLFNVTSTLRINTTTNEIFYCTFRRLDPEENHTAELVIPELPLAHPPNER
T3 sequence (Q9NZQ7 18-239): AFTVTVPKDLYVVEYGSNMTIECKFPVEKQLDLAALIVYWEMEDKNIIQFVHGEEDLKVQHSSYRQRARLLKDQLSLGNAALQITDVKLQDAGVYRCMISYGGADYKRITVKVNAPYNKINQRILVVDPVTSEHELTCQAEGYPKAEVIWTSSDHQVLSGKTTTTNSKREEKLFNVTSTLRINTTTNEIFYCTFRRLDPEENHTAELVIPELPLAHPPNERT
T1 sequence (Q9NZQ7 19-290): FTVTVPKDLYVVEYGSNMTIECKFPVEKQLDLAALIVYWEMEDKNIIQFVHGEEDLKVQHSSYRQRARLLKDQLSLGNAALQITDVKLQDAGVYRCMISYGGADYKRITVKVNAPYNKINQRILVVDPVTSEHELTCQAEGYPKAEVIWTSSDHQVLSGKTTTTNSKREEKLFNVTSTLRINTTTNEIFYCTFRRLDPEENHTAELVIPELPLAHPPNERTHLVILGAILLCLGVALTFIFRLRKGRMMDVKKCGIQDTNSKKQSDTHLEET

| inhibition at 0.5 µM (PD-1/PD-L1 complex) [%] | inhibition at 5 µM (PD-1/PD-L1 complex) [%] | IC50 (PD-1/PD-L1 complex) [nM] | Protein precipitation during NMR titration (PD-L1 protein) | Binding to PD-L1 by 1H NMR titration (PD-L1 protein) | Structure (SMILES) | Downregulation of PD-L1 expression (Western blot) [1] |
| --- | --- | --- | --- | --- | --- | --- |
| 66.3 | 100 | 640 ± 20 | not observed | bind to the PD-L1 protein | COc1nc(OCc2cccc(-c3ccccc3)c2C)ccc1CNCCCNc1cccc2c1C(=O)N(C1CCC(=O)NC1=O)C2=O (stereo not drawn) [compound 5, 2-(2,6-dioxopiperidin-3-yl)-4-((3-(((2-methoxy-6-((2-methyl-[1,1′-biphenyl]-3-yl)methoxy)pyridin-3-yl)methyl)amino)propyl)amino)isoindoline-1,3-dione] | not related to the downregulation of PD-L1 expression; also recorded: unrelated to the downregulation of PD-L1 expression |
| 18.2 | 88.8 | 1320 ± 40 | not observed | bind to the PD-L1 protein | COc1nc(OCc2cccc(-c3ccccc3)c2C)ccc1CNCC1CCN(CC(=O)Nc2cccc3c2C(=O)N(C2CCC(=O)NC2=O)C3=O)CC1 (stereo not drawn) [compound 4, N-(2-(2,6-dioxopiperidin-3-yl)-1,3-dioxoisoindolin-4-yl)-2-(4-((((2-methoxy-6-((2-methyl-[1,1′-biphenyl]-3-yl)methoxy)pyridin-3-yl)methyl)amino)methyl)piperidin-1-yl)acetamide] | not related to the downregulation of PD-L1 expression; also recorded: unrelated to the downregulation of PD-L1 expression |
